# Where two headings read alike, the source gives them in different places.
# What was measured:
# 4T1 cells = experiment: BALB/C mice model for tumor metastasis (4T1, lung metastases); assay type: in vivo; details: for Inhibitory effect on tumor metastasis, in words: compared with parent drug group and control group
# Outline: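 10^6 4T1 cells (DMEM, 10% FBS, within passage 15) injected subcutaneously into the back of BALB/C mice; primary tumor resected at about 1.5 cm, then dosing began. Drugs given IV once every three days, 4 times; saline controls. Lungs removed day 27, Bouin's-stained, metastases counted under anatomical microscope.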
# Human heart = assay type: biochemical; details: for Activation ratio (%) in homogenates from different tumor tissues: Human heart, 1 mg/ml
# [1] = tested on: Human prostate cancer PC-3 cells / Panc-1 cells; experiment: Tumor treatment in nude mice (PC-3 cells purchased, Panc-1 cells injected; Examples 22, 32, 42); assay type: in vivo; details: for Inhibition on tumor growth, in words: compared with parent drug group (same molar concentration) and control group
# Outline: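 Nude mice bearing subcutaneous Panc-1 xenografts (5×10^6 cells on the back) were randomized once tumors reached at least 100 mm^3. Drugs were given intravenously once weekly for four weeks, with saline controls. PC-3 cells were grown in DMEM/10% FBS and used within passage 15.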
# [2] = Solubility / formulation test in solvent 1 and solvent 2; assay type: physicochemical; details: for Concentration achieved, completely dissolved in both solvent 1 and solvent 2: solvent 1 injectable water
# Experimental: In Table 11, AAN, AANL and AANK indicate the linkage formed by small peptides in the compounds, A is Ala, N is Asn, L is Leu and K is Lys. […] The dissolution concentration is 10 mg/ml.
# B1, B2, B3 and B4 and various control compounds were dried under vacuum, sterilized via gas sterilization, and separately packing in a sterile room. Before animal test, B1, B2, B3 and B4 were dissolved by solvent 1 (injectable water) or solvent 2 (30% alcohol, 70% injectable water) and diluted by injectable water to the desired concentration in sterile room. […] Change in solubility may greatly affect the formulation scheme of a drug.
# D1, D2, D3, D4 and various control compounds were dried under vacuum, sterilized via gas sterilization, and separately packing in a sterile room. […] Change in solubility may greatly affect the formulation scheme of a drug.
# BALB/C mice = experiment: Maximum tolerated dose (MTD) / acute toxicity by single intravenous injection; details: for Behaviors and death observed: BALB/C mice receiving 90 mg/kg injection
# [3] = tested on: Human fibrosarcoma HT-1080 tumor tissue homogenate; assay type: biochemical; details: for Activation ratio (%) in homogenates from different tumor tissues: Human fibrosarcoma HT-1080
# Outline: (§1)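 Compounds at 1 mg/ml were incubated at 37°C with 100 μg acidized tissue homogenate (pH 6.0). Activation by homogenate proteases was assessed.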
# tumor tissue homogenates = assay type: biochemical
# Outline: as §1
# Human liver cancer Hepg2 = experiment: Multiple tumor models in nude mice: Hepg2; assay type: in vivo; details: 15 mg/kg once weekly for three weeks, Day 26
# Experimental: (§2) 1) Corresponding tumor cells were purchased from American type culture collection (ATCC) and identified according the specification provided by ATCC. Cells were cultivated in DMEM culture solution containing 10% fetal bovine serum at 37° C. and 5% CO2. The cells were passaged for every three days and cells within the 15th passage were used.
# (§3) 2) Production of tumor. 5×10^6 corresponding cells were subcutaneously injected to the back of the nude mice. Mice were randomly grouped after the tumor reached at least 100 mm^3. Then treatment began and the day on which the treatment began was day 1.
# (§4) 3) Course of treatment. […] The control group was administered by physiological saline. Animals were administered once weekly for three weeks.
# (§5) 3) Course of treatment. According to the clinical application of A1, A1 was administered in a dose of ⅙ MTD, i.v., 17.6 μmol/kg. The control group was administered by physiological saline. Animals were administered once weekly for three weeks.
# (§6) 3) Course of treatment. According to the clinical application of B1, B1 was administered in a dose of ⅙ MTD, i.v., 17.6 μmol/kg. The control group was administered by physiological saline. Animals were administered once weekly for three weeks.
# as §4, §4
# [4] = tested on: Human breast cancer MDA-MB435; experiment: Multiple tumor models in nude mice: MDA-MB435; assay type: in vivo; details: 15 mg/kg once weekly for three weeks, Day 26
# Experimental: as §2, §3, §4, §5, §6, §4, §4
# [5] = Table 28, BALB/C mice, 4T1, lung metastases day 27, IV every three days for 4 times, A1-A4 12 mg/kg, Paclitaxel 4 mg/kg
# [6] = Table 26, nude mice, IV once weekly for four weeks, A1-A4 24 mg/kg, Paclitaxel 8 mg/kg
# [7] = single intravenous injection, 125 mg/kg, 10 BALB/C mice per group
# [8] = single intravenous injection, 150 mg/kg, 10 BALB/C mice per group
# [9] = single intravenous injection, 175 mg/kg, 10 BALB/C mice per group
# [10] = single intravenous injection, 200 mg/kg, 10 BALB/C mice per group
# [11] = 4T1, BALB/C mice, lung, day 27, IV every three days for 4 times, S1′-S4′ 12 mg/kg, Paclitaxel 4 mg/kg
# [12] = nude mice, IV once weekly for four weeks, S1′-S4′ 24 mg/kg, Paclitaxel 8 mg/kg, Day 10
# [13] = nude mice, IV once weekly for four weeks, S1′-S4′ 24 mg/kg, Paclitaxel 8 mg/kg
smiles,measurement,setting,value
COCCOCCOCCOCCOCCOCCOCCOCCOCCOCCOCCOCC(=O)NCCCC[C@H](NC(=O)COCCOCCOCCOCCOCCOCCOCCOCCOCCOCCOCCOC)C(=O)N[C@H](C)C(=O)N[C@H](C)C(=O)N[C@H](CC(N)=O)C(=O)Nc1ccc(COC(=O)OC(C(=O)OC2C[C@@]3(O)[C@@H](OC(=O)c4ccccc4)[C@H]4[C@](C)(C(=O)[C@H](OC(C)=O)C(=C2C)C3(C)C)[C@@H](O)CC2OC[C@]24OC(C)=O)[C@@H](NC(=O)c2ccccc2)c2ccccc2)cc1 (stereo partly shown) [Compound A3],Inhibitory rate on metastasis,4T1 cells; [5],89.1%
same,Number of metastasized tumor,4T1 cells; [5],16 ± 9
same,"Inhibitory effect on tumor metastasis, in words",4T1 cells,greatly improved
same,Activation ratio (%) in homogenates from different tumor tissues,"Human heart; acidized homogenate pH6.0, Paclitaxel release by HPLC",none
same,inhibitory rate on tumor Day 10,"[1]; Table 26, nude mice, IV once weekly for four weeks, A1-A4 24 mg/kg, Paclitaxel 8 mg/kg, Day 10",71.9%
same,Size of tumor (mm^3) Day 24,[1]; [6],81.83 ± 89.2 mm^3
same,inhibitory rate on tumor Day 24,[1]; [6],78.5%
same,"Inhibition on tumor growth, in words",[1],greatly improved
same,solubility in Solvent 1,"[2]; solvent 1 (injectable water), Table 22, Paclitaxel series",soluble
same,"Concentration achieved, completely dissolved in both solvent 1 and solvent 2","[2]; solvent 2 45% alcohol, 55% injectable water",10000 µg/mL
same,solubility in Solvent 2,"[2]; solvent 2 (45% alcohol, 55% injectable water), Table 22, Paclitaxel series",soluble
same,"Solubility in water, in words",[2]; water,can directly dissolve in water
same,Behaviors and death observed,BALB/C mice,"no pilo-erection, hair tousle and lackluster, lethargy, stoop, irritable reaction and death"
same,Mortality rate (%),BALB/C mice; [7],10%
same,Number of dead animal,BALB/C mice; [7],1
same,Mortality rate (%),BALB/C mice; [8],0%
same,Number of dead animal,BALB/C mice; [8],0
same,Mortality rate (%),BALB/C mice; [9],0%
same,Number of dead animal,BALB/C mice; [9],0
same,Mortality rate (%),BALB/C mice; [10],0%
same,Number of dead animal,BALB/C mice; [10],0
same,Activation ratio (%) in homogenates from different tumor tissues,"[3]; 1 mg/ml, 100 μg acidized homogenate pH6.0, Paclitaxel release by HPLC",70.3%
same,"Activation efficiency by tumor tissue, in words",tumor tissue homogenates,highest activation efficiency among the screened compounds
"COCCOCC(=O)N[C@H](C)C(=O)N[C@H](C)C(=O)N[C@H](CC(N)=O)C(=O)Nc1ccc(COC(=O)N2[C@@H]3CN4C5=C(C(=O)C(N)=C(C)C5=O)[C@H](COC(N)=O)[C@]4(OC)[C@@H]32)cc1 [Compound E1, 2-(2-methoxyethoxy) acetyl-L-Ala-L-Ala-L-Asn-4-amino benzyl mitomycin]","Inhibitory effect on tumor metastasis, in words",4T1 cells,greatly improved
same,Inhibitory rate on metastasis,"4T1 cells; day 27, IV once every three days for 4 times, E1-E4 15 mg/kg, mitomycin 1 mg/kg",99.2%
same,Number of metastasized tumor,"4T1 cells; lung metastases counted on day 27, IV once every three days for 4 times, E1-E4 15 mg/kg, mitomycin 1 mg/kg",2 ± 3
same,inhibitory rate on tumor (Day 26),Human liver cancer Hepg2,85.7%
same,Mortality rate (%),"BALB/C mice; 50 mg/kg single IV injection, 10 BALB/C mice",0%
same,Number of dead animal,"BALB/C mice; 50 mg/kg single IV injection, 10 BALB/C mice, observed 17 days",0
same,Mortality rate (%),"BALB/C mice; 70 mg/kg single IV injection, 10 BALB/C mice",0%
same,Number of dead animal,"BALB/C mice; 70 mg/kg single IV injection, 10 BALB/C mice, observed 17 days",0
same,Mortality rate (%),"BALB/C mice; 90 mg/kg single IV injection, 10 BALB/C mice",0%
same,Number of dead animal,"BALB/C mice; 90 mg/kg single IV injection, 10 BALB/C mice, observed 17 days",0
same,Mortality rate (%),"BALB/C mice; 110 mg/kg single IV injection, 10 BALB/C mice",10%
same,Number of dead animal,"BALB/C mice; 110 mg/kg single IV injection, 10 BALB/C mice, observed 17 days",1
same,Behaviors and death observed,BALB/C mice,"no pilo-erection, hair tousle and lackluster, lethargy, stoop, irritable reaction and death"
same,Activation ratio (%) in homogenates from different tumor tissues,"[3]; 37° C., 1 mg/ml, 100 μg acidized homogenate",83.6%
same,inhibitory rate on tumor (Day 26),[4],86.3%
"CCCCCOC(=O)Nc1nc(=O)n([C@@H]2O[C@H](C)[C@@H](OC(=O)OCc3ccc(NC(=O)[C@H](CC(N)=O)NC(=O)[C@H](C)NC(=O)[C@H](C)NC(=O)CCCCCCC(=O)NO)cc3)[C@H]2O)cc1F [Compound S3, 4-N—(N—(N—(N-(8-(N-hydroxylamino)-1,8-octandioic acid-1-monoacyl)-L-alanyl)-L-alanyl)-L-asparaginyl)-amino benzyl alcohol-capecitabine-carbonic acid diester]",Activation Efficiencies (%),"Human heart; Human heart homogenate, 1 mg/ml compound",1.6%
same,Activation Efficiencies (%),"[3]; Human fibrosarcoma HT-1080 tumor tissue homogenate (30 μg/ml), 1 mg/ml compound",94.9%
same,"Activation efficiency by tumor tissue, in words",tumor tissue homogenates,very high activation efficiency
COCCOCCOCCOCCOCCOCCOCCOCCOCCOCCOCCOCC(=O)N[C@H](C)C(=O)N[C@H](C)C(=O)N[C@H](CC(N)=O)C(=O)Nc1ccc(COC(=O)OC(C(=O)OC2C[C@@]3(O)[C@@H](OC(=O)c4ccccc4)[C@H]4[C@](C)(C(=O)[C@H](OC(C)=O)C(=C2C)C3(C)C)[C@@H](O)CC2OC[C@]24OC(C)=O)[C@@H](NC(=O)c2ccccc2)c2ccccc2)cc1 (stereo partly shown) [S3′],Inhibitory rate on metastasis,4T1 cells; [11],90.44%
same,Number of metastasized tumor,4T1 cells; [11],13 ± 8
same,"Inhibitory effect on tumor metastasis, in words",4T1 cells,greatly improved
same,Activation ratio (%) in homogenates from different tumor tissues,Human heart; 37°,none
same,"Inhibition on tumor growth, in words",[1],greatly improved
same,Size of tumor (mm^3) Day 10,[1]; [12],75.60 ± 28.54 mm^3
same,inhibitory rate on tumor Day 10,[1]; [12],49.4%
same,Size of tumor (mm^3) Day 24,[1]; [13],74.39 ± 48.94 mm^3
same,inhibitory rate on tumor Day 24,[1]; [13],70.2%
same,solubility in Solvent 1,"[2]; Solvent 1 injectable water, dissolution concentration 10 mg/ml",soluble
same,solubility in Solvent 2,"[2]; Solvent 2: 50% injectable water, 45%-49% propanediol, 1%-5% Tween80, dissolution concentration 10 mg/ml",soluble
same,"Concentration achieved, completely dissolved in both solvent 1 and solvent 2","[2]; solvent 2 50% injectable water, 42%-49% propanediol, 1%-8% Tween80",10000 µg/mL
same,Behaviors and death observed,BALB/C mice,"no pilo-erection, hair tousle and lackluster, lethargy, stoop, irritable reaction and death"
same,Mortality rate (%),"BALB/C mice; BALB/C mice, single iv, 125 mg/kg",0%
same,Number of dead animal,"BALB/C mice; BALB/C mice, single iv, 125 mg/kg, 10 animals",0
same,Mortality rate (%),"BALB/C mice; BALB/C mice, single iv, 150 mg/kg",0%
same,Number of dead animal,"BALB/C mice; BALB/C mice, single iv, 150 mg/kg, 10 animals",0
same,Mortality rate (%),"BALB/C mice; BALB/C mice, single iv, 175 mg/kg",0%
same,Number of dead animal,"BALB/C mice; BALB/C mice, single iv, 175 mg/kg, 10 animals",0
same,Mortality rate (%),"BALB/C mice; BALB/C mice, single iv, 200 mg/kg",10%
same,Number of dead animal,"BALB/C mice; BALB/C mice, single iv, 200 mg/kg, 10 animals",1
same,Activation ratio (%) in homogenates from different tumor tissues,"[3]; 100 μg acidized homogenate pH6.0, 1 mg/ml, 37°",67.9%
same,"Activation efficiency by tumor tissue, in words",tumor tissue homogenates,highest activation efficiency among the screened compounds
